Experimental data reported in the NIST ThermoML archive (doi:10.1021/je700713q).
± gives the expanded uncertainty stated by the source.

Conditions: Crystal; visual observation

Work on CC1=CC(=O)[N-]S(=O)(=O)O1.[K+] [acesulfame potassium] yielded a Normal melting temperature of 229.00 ± 1 °C.
